By Ki is commonly meant a dissociation constant, usually derived from enzyme kinetics or from competition with a known ligand. A low value points to tighter binding.

Here are results for one compound from US7759385B2, “4-substituted 1-aminocyclohexane compounds for utilization as ORL1-receptor and mu-opiate receptor ligands” (priority 2002, dated 2010).

For the experiment, the target named is human μ opiate receptor (Homo sapiens, UniProt P35372). The experiment can be described thus: μ opiate receptor binding assay, membrane preparation of CHO-K1 cells, [3H]-naloxone (or DAMGO) displacement. Conditions: radioligand [3H]-naloxone 1 nmole/l; Cheng-Prusoff.
Chain of human μ opiate receptor (P35372 whole entry): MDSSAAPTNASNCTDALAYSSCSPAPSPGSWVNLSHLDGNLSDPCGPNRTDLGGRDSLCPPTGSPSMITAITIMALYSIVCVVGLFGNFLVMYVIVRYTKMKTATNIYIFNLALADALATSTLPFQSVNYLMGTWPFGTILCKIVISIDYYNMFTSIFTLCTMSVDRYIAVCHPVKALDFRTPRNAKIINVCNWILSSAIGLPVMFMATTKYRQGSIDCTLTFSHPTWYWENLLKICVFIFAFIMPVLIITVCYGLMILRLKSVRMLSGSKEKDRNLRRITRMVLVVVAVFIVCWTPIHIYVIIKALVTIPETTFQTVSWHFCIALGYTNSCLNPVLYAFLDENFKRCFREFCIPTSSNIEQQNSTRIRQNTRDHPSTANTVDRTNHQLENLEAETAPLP

The compound `CN(C)C1(c2ccccc2)CCC(NC(=O)N2CCC(C3C=Nc4ccc(F)cc43)CC2)CC1` (stereo not shown) [Example 34, 4-(5-fluoro-1H-indol-3-yl)piperidine-1-carboxylic acid-(4-dimethylamino-4-phenylcyclohexyl)-amide] returned a Ki of 120 nM. This lies in the sub-micromolar range.
